Assay results taken from patent US20170122958A1, “Enzymes Functional Probes” (University of Dundee, priority 2013, published 2017).
Where “and” joins values, the source holds several entries; their conditions need not be identical. Identical values can stand only once.

What was measured:
brdt(1)L063A = molecular target: T1, brdt(1)L063A (Homo sapiens, UniProt Q58F21, L63A); experiment: DSF thermal shift; format: binding; conditions: mutant
T1 construct: Plasmids of the eight single BET bromodomain constructs Brd2(1), Brd2(2), Brd3(1), Brd3(2), Brd4(1), Brd4(2), Brdt(1) and Brdt(2); His6 (N); made in house; host or cells: E. coli BL21(DE3)

Brd3(1)* (L070A) = molecular target: T2, Brd3(1)* (L070A) (Homo sapiens, UniProt Q15059, L70A); experiment: DSF thermal shift; format: binding; conditions: mutant
T2 construct: Plasmids of the eight single BET bromodomain constructs Brd2(1), Brd2(2), Brd3(1), Brd3(2); His6 (N); made in house; host or cells: E. coli BL21(DE3)

Brd2(1) [1] = molecular target: T3, Brd2(1) (Homo sapiens, UniProt P25440); experiment: ITC reverse titration of protein into compound; format: binding; conditions: for ΔH Brd2(1): ITC 25° C.
T3 construct: Plasmids of the eight single BET bromodomain constructs Brd2(1), Brd2(2), Brd3(1), Brd3(2); His6 (N); made in house; host or cells: E. coli BL21(DE3)
Procedure: (§1) ITC experiments were carried out on a ITC200 instrument from MicroCal™ Experiments were conducted at 3 different temperatures 15° C., 25° C. and 30° C., while stirring at 1000 rpm. Buffers of proteins, peptide and compounds were matched to 20 mM HEPES pH 7.5 at 25° C. and 100 mM NaCl. Frozen protein was buffer exchanged as described for the DSF experiments. Each titration comprised 1 initial injection of 0.4 μl lasting 0.8 s, followed by 19 injections of 2 μl lasting 4 s each at 2 min intervals. The initial injection was discarded during data analysis. Standard and reverse titrations were conducted depending on the binding partners.
(§2) Reverse titrations were conducted to test the binding of the known ligands and the novel chemical probes to the wild types and the mutants. Experiments were carried out either at 25° C. or 30° C. […] In cases where the compound was solubilized in dimethyl sulfoxide, DMSO concentration was adjusted to 1% both in the syringe and in the cell.
(§3) All the data was fitted to a single binding site model using the Microcal LLC ITC200 Origin software provided by the manufacturer to yield enthalpies of binding (ΔH) and binding constants (Kas). Further thermodynamic parameters were calculated from these values (changes in entropy ΔS, changes in free energy AG and dissociation constants (Kds)).

Brd2(2) [2] = molecular target: T4, Brd2(2) (Homo sapiens, UniProt P25440); experiment: ITC reverse titration of protein into compound; format: binding; conditions: ITC 25° C.; for Kd: Kd Brd2(2)
T4 construct: Plasmids of the eight single BET bromodomain constructs Brd2(1), Brd2(2), Brd3(1), Brd3(2); His6 (N); made in house; host or cells: E. coli BL21(DE3)
Procedure: as §1, §2, §3

Brd3(2) = molecular target: T5, Brd3(2) (Homo sapiens, UniProt Q15059); experiment: DSF thermal shift; format: binding; conditions: wild type
T5 construct: Plasmids of the eight single BET bromodomain constructs Brd2(1), Brd2(2), Brd3(1), Brd3(2), Brd4(1), Brd4(2), Brdt(1) and Brdt(2); His6 (N); made in house; host or cells: E. coli BL21(DE3)

brd3(2)L344A = molecular target: T6, brd3(2)L344A (Homo sapiens, UniProt Q15059, L345A); experiment: DSF thermal shift; format: binding; conditions: mutant
T6 construct: Plasmids of the eight single BET bromodomain constructs Brd2(1), Brd2(2), Brd3(1), Brd3(2), Brd4(1), Brd4(2), Brdt(1) and Brdt(2); His6 (N); made in house; host or cells: E. coli BL21(DE3)

Brd2(1) [3] = molecular target: T3, Brd2(1); experiment: DSF thermal shift; format: binding; conditions: wild type
Brdt(1) = molecular target: T7, Brdt(1) (Homo sapiens, UniProt Q58F21); experiment: DSF thermal shift; format: binding; conditions: wild type
T7 construct: Plasmids of the eight single BET bromodomain constructs Brd2(1), Brd2(2), Brd3(1), Brd3(2), Brd4(1), Brd4(2), Brdt(1) and Brdt(2); His6 (N); made in house; host or cells: E. coli BL21(DE3)

Brd2(2) [4] = molecular target: T4, Brd2(2); experiment: DSF thermal shift; format: binding; conditions: wild type
brdt(2)L306A = molecular target: T8, brdt(2)L306A (Homo sapiens, UniProt Q58F21, L306A); experiment: DSF thermal shift; format: binding; conditions: mutant
T8 construct: Plasmids of the eight single BET bromodomain constructs Brd2(1), Brd2(2), Brd3(1), Brd3(2), Brd4(1), Brd4(2), Brdt(1) and Brdt(2); His6 (N); made in house; host or cells: E. coli BL21(DE3)

Brdt(2) = molecular target: T9, Brdt(2) (Homo sapiens, UniProt Q58F21); experiment: DSF thermal shift; format: binding; conditions: wild type
T9 construct: Plasmids of the eight single BET bromodomain constructs Brd2(1), Brd2(2), Brd3(1), Brd3(2), Brd4(1), Brd4(2), Brdt(1) and Brdt(2); His6 (N); made in house; host or cells: E. coli BL21(DE3)

Brd3(1) = molecular target: T10, Brd3(1) (Homo sapiens, UniProt Q15059); experiment: DSF thermal shift; format: binding; conditions: wild type
T10 construct: Plasmids of the eight single BET bromodomain constructs Brd2(1), Brd2(2), Brd3(1), Brd3(2); His6 (N); made in house; host or cells: E. coli BL21(DE3)

Brd2(2)*(Leu383-Ala) = Brd2(2)*(Leu383-Ala) (Homo sapiens, UniProt P25440, L383A); experiment: DSF thermal shift; format: binding; set-up: Plasmids of the eight single BET bromodomain constructs Brd2(1), Brd2(2), Brd3(1), Brd3(2); His6 (N); made in house; host or cells: E. coli BL21(DE3); conditions: mutant
Procedure: (§4) DSF assays were performed on a LightCycler®480 from Roche or a Mx3005P Real Time PCR machine from Stratagene. […] SYPRO®Orange from Invitrogen Molecular Probes® was used as a reporter dye to monitor the denaturing process of the proteins. Samples were assayed on a 96-well plate with final protein concentrations of 2 μM for the LightCycler®480 and 6 μM for Mx3005P. Compounds were added at a final concentration of 10 μM for the LightCycler®480 and 30 μM for Mx3005P, while the tetra acetylated histone peptide was added to a final concentration of 100 μM and 300 μM respectively. […] The temperature was raised with a step of 0.6° C. per minute from 37° C. to 95° C. with the LightCycler®480 collecting 39 measurements per ° C., and 1° C. per minute from 25° C. to 95° C. with Mx3005P, collecting fluorescence readings at the end of each interval. Each sample was run in triplicates.
(§5) Collected data was analysed by IGOR Pro 6, a scientific software tool from Wave Metrics, Inc. Analysis was done following the recommendations of Niesen et al.. Fluorescence intensity was plotted as a function of temperature, generating a sigmoidal curve described by a two-state transition from folded to unfolded protein. Curves were fitted by the following sigmoidal equation: […]
(§6) A1 and A2 are the values of minimum and maximum intensities, respectively, x0 is the inflection point and dx is the rate. Fitted curves were differentiated in IGOR Pro 6 and the maximum of the first derivative was identified using the same program. These values correspond to the inflection points of the transition curves and thus to the melting temperatures of the proteins (Tm).

Brd2(1)*(Leu110-Ala) = Brd2(1)*(Leu110-Ala) (Homo sapiens, UniProt P25440, L110A); experiment: DSF thermal shift; format: binding; set-up: Plasmids of the eight single BET bromodomain constructs Brd2(1), Brd2(2), Brd3(1), Brd3(2); His6 (N); made in house; host or cells: E. coli BL21(DE3); conditions: mutant
Procedure: as §4, §5, §6

[5] = tested on: Brd2(1) and (2) wild type and leucine to alanine, valine and isoleucine mutants; experiment: DSF thermal stabilization (FIG. 15); format: binding, human; conditions: result in words
Procedure: as §4, §5, §6

T3 sequence (P25440 74-180 limits assumed): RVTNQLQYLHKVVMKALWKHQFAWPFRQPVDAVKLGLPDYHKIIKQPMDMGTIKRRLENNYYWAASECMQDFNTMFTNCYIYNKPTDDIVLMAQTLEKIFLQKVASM
T4 sequence (P25440 344-453 limits assumed): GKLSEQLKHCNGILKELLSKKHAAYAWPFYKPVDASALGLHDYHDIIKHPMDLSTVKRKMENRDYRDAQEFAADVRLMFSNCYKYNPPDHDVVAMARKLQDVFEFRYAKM
Chain of Brd2(1)*(Leu110-Ala) (P25440 74-180 L110A limits assumed): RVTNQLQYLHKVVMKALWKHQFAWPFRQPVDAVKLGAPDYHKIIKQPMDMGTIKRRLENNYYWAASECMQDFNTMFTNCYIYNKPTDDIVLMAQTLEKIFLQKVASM
Chain of Brd2(2)*(Leu383-Ala) (P25440 344-453 L383A limits assumed): as the sequence (P25440 344-453 limits assumed) above, with L40A counted along it
T5 sequence (Q15059 306-415 limits assumed): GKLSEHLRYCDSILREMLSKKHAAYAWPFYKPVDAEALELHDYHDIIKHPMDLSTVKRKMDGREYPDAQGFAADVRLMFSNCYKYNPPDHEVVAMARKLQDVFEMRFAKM
T2 sequence (Q15059 34-140 L70A limits assumed): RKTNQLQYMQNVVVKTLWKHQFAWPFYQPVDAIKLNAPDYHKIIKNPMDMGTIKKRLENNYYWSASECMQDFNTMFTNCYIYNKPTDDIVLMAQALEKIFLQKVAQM
T10 sequence (Q15059 34-140 limits assumed): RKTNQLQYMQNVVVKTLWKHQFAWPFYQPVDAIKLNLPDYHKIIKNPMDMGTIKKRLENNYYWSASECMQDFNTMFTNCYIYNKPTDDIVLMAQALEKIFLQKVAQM
T6 sequence (Q15059 306-415 L345A): as the sequence (Q15059 306-415 limits assumed) above, with L40A counted along it

Structure (SMILES)	ΔTm Brdt(1)* (L063A) (brdt(1)L063A) [K]	ΔTm Brd3(1)* (L070A) (Brd3(1)* (L070A)) [K]	Kd (Brd2(1) [1]) [µM]	ΔH Brd2(1) (Brd2(1) [1]) [kcal/mol]	ΔH Brd2(2) (Brd2(2) [2]) [kcal/mol]	Kd (Brd2(2) [2])	ΔTm Brd3(2) (Brd3(2)) [K]	ΔTm Brd3(2)* (L344A) (brd3(2)L344A) [K]	ΔTm Brd2(1) (Brd2(1) [3]) [K]	ΔTm Brdt(1) (Brdt(1)) [K]	ΔTm Brd2(2) (Brd2(2) [4]) [K]	ΔTm Brdt(2)* (L306A) (brdt(2)L306A) [K]	ΔTm Brdt(2) (Brdt(2)) [K]	ΔTm Brd3(1) (Brd3(1)) [K]	ΔTm Brd2(2)*(Leu383-Ala) (Brd2(2)*(Leu383-Ala)) [K]	ΔTm Brd2(1)*(Leu110-Ala) (Brd2(1)*(Leu110-Ala)) [K]	Thermal stabilization of Brd2 mutants versus wild types (FIG. 15) [5]	further results
COC(=O)[C@H](C)[C@@H]1N=C(c2ccc(Cl)cc2)c2cc(OC)ccc2-n2c(C)nnc21 (racemic) [Compound 7, (+−)-methyl (R)-2-((S)-6-(4-chlorophenyl)-8-methoxy-1-methyl-4H-benzo[f][1,2,4]triazolo[4,3-a][1,4]diazepin-4-yl)propanoate]	5.8 ± 0.3	10.8 ± 0.3	1.47	-8.653 ± 0.1357	-5.36 ± 0.117	0.3 µM and 0.298 µM	6.7 ± 1.0	15.6 ± 0.4	3.2 ± 0.2	5.3 ± 0.3	5.6 ± 0.1	7.9 ± 0.2	3.7 ± 0.3	5.9 ± 0.2	9.3 ± 0.2	7.9 ± 0.2	increased thermal shifts of the leucine to alanine mutants	Thermal stabilisation brd2(1) (Brd2(1) [3]): 3.2 ± 0.2 °C; Thermal stabilisation brd2(1) (Brd2(1) [3]; listed as compound 7): 3.2 °C; Thermal stabilisation brd2(2) (Brd2(2) [4]): 5.6 ± 0.1 °C; Thermal stabilisation brd2(2) (Brd2(2) [4]; listed as compound 7): 5.6 °C; Thermal stabilisation brd2(2)L383A (Brd2(2)*(Leu383-Ala)): 9.3 ± 0.2 °C; Thermal stabilisation brd2(2)L383A (Brd2(2)*(Leu383-Ala); listed as compound 7): 9.3 °C; Thermal stabilisation brd2(1)L110A (Brd2(1)*(Leu110-Ala)): 7.9 ± 0.2 °C; Thermal stabilisation brd2(1)L110A (Brd2(1)*(Leu110-Ala); listed as compound 7): 7.9 °C
CC[C@@H](C(=O)OC)[C@@H]1N=C(c2ccc(Cl)cc2)c2cc(OC)ccc2-n2c(C)nnc21 (racemic) [Compound 11, (+−)-methyl (R)-2-((S)-6-(4-chlorophenyl)-8-methoxy-1-methyl-4H-benzo[f][1,2,4]triazolo[4,3-a][1,4]diazepin-4-yl)butanoate]	5.4 ± 0.3	10.4 ± 0.3	1.78 ± 2	-2.957 ± 0.2144	-3.601 ± 0.0852	2.2 ± 0.4 µM	2.6 ± 0.7	13.4 ± 0.6	1.2 ± 0.2	1.5 ± 0.4	1.6 ± 0.1	6.7 ± 0.4	1.3 ± 0.3	2.2 ± 0.1	8.1 ± 0.2	7.6 ± 0.2	increased thermal shifts of the leucine to alanine mutants	–
